Assay results reported in patent publication US11357752B2, “Carolacton and derivatives thereof for use in the treatment of cell proliferation disorders” (Helmholtz-Zentrum für Infektionsforschung GmbH, priority 2017, dated 2022).
Where two headings read alike, the source gives them in different places.

Tests used:
Test in all cases: CellTiter-Glo luminescent cell viability assay
Type in all cases: cell-based, human
THP-1 cells = conditions: for IC50: Homo sapiens, THP-1, 72 h, 72 h
Procedure: (§1) To evaluate the effects of one compound on 7 cell lines with a CellTiter-Glo Luminescent Cell Viability Assay. Cells were treated with compounds for 72 hours at 37° C./5% CO2 incubator. Compound stock concentration was 20 mM, concentrations to be assayed 100\50\15\10.5\0.1\0.05\0.01\0.005 pM. • i) Materials and Reagents
(§2) a) Cells in log-phase are collected and counted. Cell suspensions are added to each well of 384-w plate at a suitable density. The margin wells are filled with PBS.
(§3) b) Test compound at various concentrations are added in duplicates
(§4) c) The cells were incubated for 72 h in 370/5% CO 2 incubator.
(§5) d) After incubation, CellTiter-Glo® Reagent is added to each test well and shack for 2 minutes on an orbital shaker.
(§6) e) The plates are shortly centrifuged at 90×g for 30 s and incubated at room temperature for additional 10 minutes to stabilize the luminescent signal.
(§7) f) Luminescence signals are detected on PHERAstar Plus.
(§8) g) Data is collected in Microsoft excel forms and analyzed with GraphPad Prism v.6 software. • iii) Data analysis
(§9) The potential effect of the testing compounds an cell proliferation was calculated by the formula below: Inhibition %=[…]
(§10) Since hsMTHFD2 is expressed in human mitochondria and overexpressed in many tumor cells we next aimed to evaluate its potential as an anticancer compound. To this end IC50 values for carolacton were determined for six different cancer cell lines as well as HUVEC cells as primary non-tumor cells. The CellTiter-Glo luminescent cell viability assay (Promega) was used on triplicate cultures grown for three days. Each cell line was tested in three independent experiments (performed at different times and by different experimentators): First, using natural carolacton purified from culture supernatants of Sorangium cellulosum and solved in methanol; second, using carolacton synthesized de novo according to Schmidt et al. 2012 and solved in DMSO; and third, using synthetic carolacton synthesized de novo according to Schmidt et al. 2012 and solved in methanol.

NK-92 cells = conditions: for IC50: Homo sapiens
Procedure: as §1, §2, §3, §4, §5, §6, §7, §8, §9, §10

SW626 cells = conditions: for IC50: Homo sapiens, SW626, 72 h, 72 h, read-out: IC50 inhibition of cancer cell proliferation
Procedure: as §1, §2, §3, §4, §5, §6, §7, §8, §9, §10

HCT 116 cells = conditions: for IC50: Homo sapiens, HCT-116, 72 h, 72 h, read-out: IC50 inhibition of cancer cell proliferation
Procedure: as §1, §2, §3, §4, §5, §6, §7, §8, §9, §10

CO[C@H](CC(=O)O)[C@@H](C)C(=O)[C@H](C)/C=C(\C)[C@H]1OC(=O)[C@H](O)[C@H](O)/C=C/[C@H](C)CCC[C@@H]1C [Carolacton, carolacton]
IC50 (THP-1 cells; THP 1, synthetic C, methanol, read-out: IC50 inhibition of cancer cell proliferation): 49.6 µM
IC50 (THP-1 cells; THP-1, natural C, methanol, read-out: IC50 inhibition of cancer cell proliferation): 8.82 µM
IC50 (THP-1 cells; read-out: IC50 inhibition of cancer cell proliferation, THP-1, synthetic C, DMSO): 103 µM
Bottom (THP-1 cells; THP 1, synthetic C, methanol): 14.83
Top (THP-1 cells; THP 1, synthetic C, methanol): 67.53
Bottom (THP-1 cells; THP-1, natural C, methanol): 2.537
Top (THP-1 cells; THP-1, natural C, methanol): 75.92
Bottom (THP-1 cells; THP-1, synthetic C, DMSO): −4.341
Top (THP-1 cells; THP-1, synthetic C, DMSO): =100.0
IC50 (NK-92 cells; NK92, 72 h, NK-92, natural C, methanol, 72 h, read-out: IC50 inhibition of cancer cell proliferation): 0.0399 µM
IC50 (NK-92 cells; NK92, 72 h, NK-92, synthetic C, DMSO, 72 h, read-out: IC50 inhibition of cancer cell proliferation): > 100 µM
IC50 (NK-92 cells; NK92, 72 h, read-out: IC50 inhibition of cancer cell proliferation, NK-92, synthetic C, methanal, 72 h): 0.0367 µM
IC50 (NK-92 cells; NK92, malignant NK-92 cells, read-out: IC50 inhibition of proliferation): 0.037 to 0.039 µM
Bottom (NK-92 cells; NK-92, natural C, methanol): −9.96
Top (NK-92 cells; NK-92, natural C, methanol): 91.08
Bottom (NK-92 cells; NK-92, synthetic C, methanal): 1.208
Top (NK-92 cells; NK-92, synthetic C, methanal): 91.05
IC50 (SW626 cells; natural C, methanol): 0.365 µM
IC50 (SW626 cells; synthetic C, DMSO): 0.908 µM
IC50 (SW626 cells; synthetic C, methanol): 0.992 µM
Bottom (SW626 cells; natural C, methanol): 1.167
Top (SW626 cells; natural C, methanol): 42.81
Bottom (SW626 cells; synthetic C, DMSO): 5.588
Top (SW626 cells; synthetic C, DMSO): 43.17
Bottom (SW626 cells; synthetic C, methanol): 3.62
Top (SW626 cells; synthetic C, methanol): 47.2
IC50 (HCT 116 cells; natural C, methanol): 0.53 µM
IC50 (HCT 116 cells; synthetic C, DMSO): 0.286 µM
IC50 (HCT 116 cells; synthetic C, methanol): 0.521 µM
Bottom (HCT 116 cells; natural C, methanol): −1.927
Top (HCT 116 cells; natural C, methanol): 43.89
Bottom (HCT 116 cells; synthetic C, DMSO): −1.609
Top (HCT 116 cells; synthetic C, DMSO): 63.98
Bottom (HCT 116 cells; synthetic C, methanol): −2.614
Top (HCT 116 cells; synthetic C, methanol): 63.68
